In the supplement of paper PMC12076712:

Legend:
Assay in all cases: pIC50, kinobeads binding competition
Conditions in all cases: cell material: Jurkat lysate
PDIK1L = PDIK1L (UniProt Q8N165)
STK35 = STK35 (UniProt Q8TDR2)
TRRAP = TRRAP (UniProt Q9Y4A5)
CAMK4 = biological target: T1, CAMK4 (UniProt Q16566)
T1 sequence (whole entry): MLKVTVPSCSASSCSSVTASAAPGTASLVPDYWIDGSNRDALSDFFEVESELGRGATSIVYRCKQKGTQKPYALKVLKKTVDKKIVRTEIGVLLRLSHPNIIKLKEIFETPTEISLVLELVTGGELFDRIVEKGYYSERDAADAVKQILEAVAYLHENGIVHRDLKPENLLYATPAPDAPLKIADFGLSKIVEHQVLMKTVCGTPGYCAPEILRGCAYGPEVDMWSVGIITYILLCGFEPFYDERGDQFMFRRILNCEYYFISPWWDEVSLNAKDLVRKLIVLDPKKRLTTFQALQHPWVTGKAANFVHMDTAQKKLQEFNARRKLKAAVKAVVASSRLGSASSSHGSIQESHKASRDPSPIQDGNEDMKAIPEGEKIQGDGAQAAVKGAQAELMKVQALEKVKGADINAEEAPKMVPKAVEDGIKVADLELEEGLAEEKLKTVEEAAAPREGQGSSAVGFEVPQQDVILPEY

PRKD2 = biological target: T2, PRKD2 (UniProt Q9BZL6)
T2 sequence (whole entry): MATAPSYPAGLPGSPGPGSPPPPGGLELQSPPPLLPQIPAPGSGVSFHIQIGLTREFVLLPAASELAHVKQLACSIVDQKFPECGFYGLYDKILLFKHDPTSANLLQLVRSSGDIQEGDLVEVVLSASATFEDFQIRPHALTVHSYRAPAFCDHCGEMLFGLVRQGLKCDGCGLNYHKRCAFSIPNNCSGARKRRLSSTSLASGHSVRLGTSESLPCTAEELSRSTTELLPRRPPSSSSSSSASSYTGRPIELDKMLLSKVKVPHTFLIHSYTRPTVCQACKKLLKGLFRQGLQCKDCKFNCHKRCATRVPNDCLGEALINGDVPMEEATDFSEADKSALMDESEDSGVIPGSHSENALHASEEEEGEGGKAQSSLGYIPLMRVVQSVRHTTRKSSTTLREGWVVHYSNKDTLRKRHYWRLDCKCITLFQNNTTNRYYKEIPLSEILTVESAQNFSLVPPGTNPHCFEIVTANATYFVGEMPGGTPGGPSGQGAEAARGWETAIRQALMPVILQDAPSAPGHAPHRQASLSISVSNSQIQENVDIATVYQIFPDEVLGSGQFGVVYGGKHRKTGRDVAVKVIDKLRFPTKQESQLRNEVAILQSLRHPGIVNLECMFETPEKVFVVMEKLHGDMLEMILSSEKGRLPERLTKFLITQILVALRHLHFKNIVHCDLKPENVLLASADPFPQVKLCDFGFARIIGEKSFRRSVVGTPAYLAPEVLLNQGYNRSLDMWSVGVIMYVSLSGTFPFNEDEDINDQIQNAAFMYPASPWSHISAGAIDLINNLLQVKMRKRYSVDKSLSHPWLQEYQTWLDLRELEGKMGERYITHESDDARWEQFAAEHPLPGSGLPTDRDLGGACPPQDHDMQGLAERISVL

FGR = FGR (UniProt P09769)
EPHB2 = biological target: T3, EPHB2 (UniProt P29323)
T3 sequence (whole entry): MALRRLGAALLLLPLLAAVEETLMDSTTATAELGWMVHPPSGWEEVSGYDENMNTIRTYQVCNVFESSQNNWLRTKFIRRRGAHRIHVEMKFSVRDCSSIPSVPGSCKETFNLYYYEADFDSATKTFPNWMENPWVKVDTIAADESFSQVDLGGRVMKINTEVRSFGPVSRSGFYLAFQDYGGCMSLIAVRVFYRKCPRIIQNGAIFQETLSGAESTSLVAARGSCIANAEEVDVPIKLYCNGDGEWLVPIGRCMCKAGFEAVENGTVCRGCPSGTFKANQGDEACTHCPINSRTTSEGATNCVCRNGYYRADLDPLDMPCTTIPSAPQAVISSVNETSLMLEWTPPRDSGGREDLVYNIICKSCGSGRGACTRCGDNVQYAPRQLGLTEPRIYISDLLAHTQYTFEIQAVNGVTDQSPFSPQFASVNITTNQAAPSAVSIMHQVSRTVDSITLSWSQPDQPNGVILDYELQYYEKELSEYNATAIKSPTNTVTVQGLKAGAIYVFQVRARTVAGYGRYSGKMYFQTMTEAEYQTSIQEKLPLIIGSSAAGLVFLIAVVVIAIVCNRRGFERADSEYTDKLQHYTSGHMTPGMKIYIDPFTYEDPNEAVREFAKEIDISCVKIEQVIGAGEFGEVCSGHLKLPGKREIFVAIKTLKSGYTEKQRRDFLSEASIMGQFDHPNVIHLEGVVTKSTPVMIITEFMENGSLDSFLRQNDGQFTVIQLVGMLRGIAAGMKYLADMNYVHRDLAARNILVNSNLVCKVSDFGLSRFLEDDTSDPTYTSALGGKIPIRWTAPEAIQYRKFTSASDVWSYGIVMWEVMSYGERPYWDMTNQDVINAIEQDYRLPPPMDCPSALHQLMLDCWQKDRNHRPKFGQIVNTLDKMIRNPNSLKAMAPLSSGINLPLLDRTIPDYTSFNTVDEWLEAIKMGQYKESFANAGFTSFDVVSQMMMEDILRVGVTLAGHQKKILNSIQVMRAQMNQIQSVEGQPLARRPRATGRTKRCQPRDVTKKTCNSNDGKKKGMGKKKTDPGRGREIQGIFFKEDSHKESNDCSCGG

BRAF = BRAF (UniProt P15056)
UniProt Q15208 = biological target: UniProt Q15208

Measured: pIC50

Sequence of UniProt Q15208 (Q15208 whole entry, looked up): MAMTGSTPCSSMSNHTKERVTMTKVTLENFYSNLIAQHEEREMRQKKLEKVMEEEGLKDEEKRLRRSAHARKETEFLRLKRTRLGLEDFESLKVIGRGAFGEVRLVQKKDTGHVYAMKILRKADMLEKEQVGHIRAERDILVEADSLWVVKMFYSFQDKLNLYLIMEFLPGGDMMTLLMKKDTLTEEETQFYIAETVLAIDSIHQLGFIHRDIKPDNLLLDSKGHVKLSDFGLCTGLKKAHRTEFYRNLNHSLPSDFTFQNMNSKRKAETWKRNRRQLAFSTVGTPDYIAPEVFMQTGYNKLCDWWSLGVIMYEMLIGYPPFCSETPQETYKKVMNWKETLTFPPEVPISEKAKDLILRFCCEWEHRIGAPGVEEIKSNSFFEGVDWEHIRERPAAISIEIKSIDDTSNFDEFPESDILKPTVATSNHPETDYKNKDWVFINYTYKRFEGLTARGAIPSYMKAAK
Sequence of PDIK1L (Q8N165 whole entry): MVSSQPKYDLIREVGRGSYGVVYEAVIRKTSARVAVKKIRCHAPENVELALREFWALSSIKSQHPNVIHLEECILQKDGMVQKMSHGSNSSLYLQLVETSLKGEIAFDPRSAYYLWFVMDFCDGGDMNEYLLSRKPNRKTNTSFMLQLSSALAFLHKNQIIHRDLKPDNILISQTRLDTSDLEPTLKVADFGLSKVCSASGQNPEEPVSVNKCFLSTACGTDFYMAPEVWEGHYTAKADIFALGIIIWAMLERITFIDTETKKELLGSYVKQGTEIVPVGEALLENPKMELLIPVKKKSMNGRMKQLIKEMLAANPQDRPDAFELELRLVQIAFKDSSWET
Sequence of BRAF (P15056 whole entry): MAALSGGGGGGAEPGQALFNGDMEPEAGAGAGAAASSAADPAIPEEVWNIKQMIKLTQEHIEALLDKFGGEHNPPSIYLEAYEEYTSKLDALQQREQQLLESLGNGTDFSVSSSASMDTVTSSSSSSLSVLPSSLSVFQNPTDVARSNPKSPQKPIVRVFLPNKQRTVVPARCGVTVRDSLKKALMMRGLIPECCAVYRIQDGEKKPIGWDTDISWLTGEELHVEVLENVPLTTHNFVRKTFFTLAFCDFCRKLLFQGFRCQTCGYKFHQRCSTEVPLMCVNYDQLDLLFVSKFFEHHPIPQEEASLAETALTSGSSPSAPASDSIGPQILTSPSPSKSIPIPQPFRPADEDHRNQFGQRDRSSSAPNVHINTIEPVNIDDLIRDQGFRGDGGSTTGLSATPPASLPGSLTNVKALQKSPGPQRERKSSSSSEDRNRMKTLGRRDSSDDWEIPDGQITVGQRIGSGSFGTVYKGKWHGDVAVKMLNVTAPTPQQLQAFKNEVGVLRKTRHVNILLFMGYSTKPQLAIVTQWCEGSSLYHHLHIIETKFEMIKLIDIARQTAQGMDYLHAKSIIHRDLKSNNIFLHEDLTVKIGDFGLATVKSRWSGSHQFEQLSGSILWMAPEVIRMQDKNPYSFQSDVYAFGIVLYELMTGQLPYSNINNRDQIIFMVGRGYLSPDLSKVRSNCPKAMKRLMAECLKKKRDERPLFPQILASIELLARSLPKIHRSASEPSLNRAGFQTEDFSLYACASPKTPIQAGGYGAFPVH
Sequence of FGR (P09769 whole entry, looked up): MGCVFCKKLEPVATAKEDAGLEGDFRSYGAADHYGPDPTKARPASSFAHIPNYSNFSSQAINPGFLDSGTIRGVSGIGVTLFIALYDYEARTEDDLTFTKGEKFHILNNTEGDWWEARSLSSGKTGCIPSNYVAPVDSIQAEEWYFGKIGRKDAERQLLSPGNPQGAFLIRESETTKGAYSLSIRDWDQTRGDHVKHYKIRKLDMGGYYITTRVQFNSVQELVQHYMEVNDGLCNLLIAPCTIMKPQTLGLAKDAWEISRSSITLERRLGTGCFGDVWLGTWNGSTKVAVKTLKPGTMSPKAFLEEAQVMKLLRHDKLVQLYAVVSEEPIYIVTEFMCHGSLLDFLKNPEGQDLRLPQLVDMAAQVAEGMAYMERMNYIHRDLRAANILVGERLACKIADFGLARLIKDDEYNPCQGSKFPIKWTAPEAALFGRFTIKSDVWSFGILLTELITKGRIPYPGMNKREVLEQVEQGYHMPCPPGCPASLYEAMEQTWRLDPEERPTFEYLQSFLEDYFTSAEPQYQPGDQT
Sequence of STK35 (Q8TDR2 whole entry): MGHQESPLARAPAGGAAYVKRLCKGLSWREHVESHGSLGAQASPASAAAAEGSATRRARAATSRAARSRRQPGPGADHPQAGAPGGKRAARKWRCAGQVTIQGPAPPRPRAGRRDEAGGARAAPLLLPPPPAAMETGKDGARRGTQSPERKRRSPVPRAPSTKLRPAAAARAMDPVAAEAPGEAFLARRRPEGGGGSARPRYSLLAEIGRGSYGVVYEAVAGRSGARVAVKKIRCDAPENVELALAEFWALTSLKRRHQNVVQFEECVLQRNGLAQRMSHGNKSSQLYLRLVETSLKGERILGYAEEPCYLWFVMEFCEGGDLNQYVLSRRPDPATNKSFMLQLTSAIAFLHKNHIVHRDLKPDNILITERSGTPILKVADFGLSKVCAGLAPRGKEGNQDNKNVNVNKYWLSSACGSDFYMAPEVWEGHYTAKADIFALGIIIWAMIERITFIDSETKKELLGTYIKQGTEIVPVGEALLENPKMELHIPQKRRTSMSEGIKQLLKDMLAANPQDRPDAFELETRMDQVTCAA

CCc1cnn2c(NCc3ccc[n+]([O-])c3)cc(N3CCCC[C@H]3CCO)nc12 [dinaciclib]
< 4.52: all assays above
